The values below are quoted from earlier work in patent publication EP4778540A1, “ANTIBODY-DRUG CONJUGATE CONTAINING HETEROCYCLIC COMPOUND HAVING ACTIVITY OF INDUCING DECOMPOSITION OF G12D MUTANT KRAS PROTEIN” (Astellas Pharma Inc., priority 2023, dated 2025).

Structures can show the parent of a compound that is named as a salt.

This data set deals with T1, mutant RAS G12D protein (Homo sapiens, UniProt P01116, G12D).
T1 construct: endogenous in cells; host or cells: AsPC-1 (human pancreatic cancer line)
Conditions: human G12D mutant KRAS-positive pancreatic cancer line AsPC-1, cited from earlier work; for DC50: DC50 of D10 calculated from a molecular weight in terms of 4 hydrochloride.

T1 sequence (P01116 1-188 isoform P01116-2 G12D): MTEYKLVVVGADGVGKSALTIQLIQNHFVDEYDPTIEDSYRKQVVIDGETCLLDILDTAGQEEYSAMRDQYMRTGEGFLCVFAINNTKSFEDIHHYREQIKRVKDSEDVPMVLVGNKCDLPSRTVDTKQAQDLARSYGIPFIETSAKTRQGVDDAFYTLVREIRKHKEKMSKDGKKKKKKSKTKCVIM

`COC(C)COc1nc(N(C)C2CCNC2)c2cc(C3CC3)c(-c3c(C)c(F)cc4[nH]ncc34)c(OCc3ccc(-c4cn(C(C(=O)N5CC(O)CC5C(=O)NC(CO)c5ccc(-c6scnc6C)cc5)C(C)C)nn4)cc3)c2n1` [D7, (4R)-1-[(2S)-2-{4-[4-({[(7M)-6-cyclopropyl-7-(6-fluoro-5-methyl-1H-indazol-4-yl)-2-[(2S)-2-methoxypropoxy]-4-{methyl[(3S)-pyrrolidin-3-yl]amino}quinazolin-8-yl]oxy}methyl)phenyl]-1H-1,2,3-triazol-1-yl}-3-methylbutanoyl]-4-hydroxy-N-{(1R)-2-hydroxy-1-[4-(4-methyl-1,3-thiazol-5-yl)phenyl]ethyl}-L-prolinamide]: the DC50 is 10 nM.

As to `Cc1c(F)cc2[nH]ncc2c1-c1c(C2CC2)cc2c(N3CC4CC3CN4)nc(OC3CCOCC3)nc2c1OCc1ccc(C(=O)N2CCN(Cc3ccc4c(c3)n(C)c(=O)n4C3CCC(=O)NC3=O)CC2C)cc1` [D9, 3-(5-{[(3S)-4-{4-[({(7M)-6-cyclopropyl-4-[(1S,4S)-2,5-diazabicyclo[2.2.1]heptan-2-yl]-7-(6-fluoro-5-methyl-1H-indazol-4-yl)-2-[(oxan-4-yl)oxy]quinazolin-8-yl}oxy)methyl]benzoyl} -3-methylpiperazin-1-yl]methyl}-3-methyl-2-oxo-2,3-dihydro-1H-benzimidazol-1-yl)piperidine-2,6-dione], the DC50 is 13 nM and the Dmax is on record as 86%.

For `CO[C@@H](C)COc1nc(N2C[C@@H]3C[C@H]2CN3)c2cc(C3CC3)c(-c3c(C)c(F)cc4[nH]ncc34)c(OCc3ccc(C(=O)N4CCN(Cc5ccc6c(c5)n(C)c(=O)n6C5CCC(=O)NC5=O)C[C@@H]4C)cc3)c2n1` (stereo partly drawn) [D11, 3-(5-{[(3S)-4-{4-[({(7M)-6-cyclopropyl-4-[(1S,4S)-2,5-diazabicyclo[2.2.1]heptan-2-yl]-7-(6-fluoro-5-methyl-1H-indazol-4-yl)-2-[(2S)-2-methoxypropoxy]quinazolin-8-yl}oxy)methyl]benzoyl}-3-methylpiperazin-1-yl]methyl}-3-methyl-2-oxo-2,3-dihydro-1H-benzimidazol-1-yl)piperidine-2,6-dione], the DC50 was 8 nM and the Dmax is listed as 86%.

With `Cc1c(F)cc2[nH]ncc2c1-c1c(C2CC2)cc2c(N3C[C@@H]4C[C@H]3CN4)nc(OC3CCOCC3)nc2c1OCc1ccc(C(=O)N2CCN(Cc3ccc4c(N5CCC(=O)NC5=O)nn(C)c4c3)C[C@@H]2C)cc1` [D10, 1-(6-{[(3S)-4-{4-[({(7M)-6-cyclopropyl-4-[(1S,4S)-2,5-diazabicyclo[2.2.1]heptan-2-yl]-7-(6-fluoro-5-methyl-1H-indazol-4-yl)-2-[(oxan-4-yl)oxy]quinazolin-8-yl}oxy)methyl]benzoyl}-3-methylpiperazin-1-yl]methyl}-1-methyl-1H-indazol-3-yl)-1,3-diazinane-2,4-dione n-hydrochloride], the DC50 is 71 nM and the Dmax is reported as 86%.
